# Paper PMC5218480 (PLoS ONE, 2017)
# Tested on: MV-4-11 cells
# Experiment: Gene expression microarray analysis (Affymetrix PrimeView) and GSEA
# Format: cell-based, human
# Design: RFU PODN (11730768_x_at) / Fold change /veh PODN (11730768_x_at) / RFU LINC00158 (11744669_a_at) / Fold change /veh LINC00158 (11744669_a_at) / RFU DUSP10 (11751237_a_at) / Fold change /veh DUSP10 (11751237_a_at) / RFU ID3 (11757404_x_at) / Fold change /veh ID3 (11757404_x_at) / RFU PLEKHG5 (11737974_s_at) / Fold change /veh PLEKHG5 (11737974_s_at) / RFU LRRC4B (11730491_at) / Fold change /veh LRRC4B (11730491_at) / RFU GIMAP4 (11747438_a_at) / Fold change /veh GIMAP4 (11747438_a_at) / RFU KRT8 (11758183_x_at) / Fold change /veh KRT8 (11758183_x_at) / RFU CNN1 (11734310_a_at) / Fold change /veh CNN1 (11734310_a_at) / RFU VPS37D (11726825_at) / Fold change /veh VPS37D (11726825_at) / RFU C10orf10 (11716522_x_at) / Fold change /veh C10orf10 (11716522_x_at) / RFU KIR2DL2 /// KIR2DL4 /// KIR2DL5A /// KIR2DL5B /// KIR2DS1 /// KIR2DS2 /// KIR2DS3 /// KIR2DS4 /// KIR3DL3 /// KIR3DL3 /// KIR3DS1 (11738374_at) / Fold change /veh KIR2DL2 /// KIR2DL4 /// KIR2DL5A /// KIR2DL5B /// KIR2DS1 /// KIR2DS2 /// KIR2DS3 /// KIR2DS4 /// KIR3DL3 /// KIR3DL3 /// KIR3DS1 (11738374_at) / RFU C1QL1 (11718748_at) / Fold change /veh C1QL1 (11718748_at) / RFU TMPRSS4 (11747572_a_at) / Fold change /veh TMPRSS4 (11747572_a_at) / RFU HAMP (11756126_x_at) / Fold change /veh HAMP (11756126_x_at) / RFU RNFT2 (11725882_a_at) / Fold change /veh RNFT2 (11725882_a_at) / RFU NR4A2 (11747474_a_at) / Fold change /veh NR4A2 (11747474_a_at) / RFU ABCC12 (11746883_a_at) / Fold change /veh ABCC12 (11746883_a_at) / RFU TMEM136 (11760407_x_at) / Fold change /veh TMEM136 (11760407_x_at) / RFU CLDN22 /// WWC2 (11732394_at) / Fold change /veh CLDN22 /// WWC2 (11732394_at) / RFU HLA-DPB1 (11760878_x_at) / Fold change /veh HLA-DPB1 (11760878_x_at) / RFU SPINT1 (11716480_a_at) / Fold change /veh SPINT1 (11716480_a_at) / RFU GAP43 (11754022_s_at) / Fold change /veh GAP43 (11754022_s_at) / RFU A4GNT (11735810_at) / Fold change /veh A4GNT (11735810_at) / RFU PRB3 (11715151_x_at) / Fold change /veh PRB3 (11715151_x_at) / RFU TUBB4B (11761932_at) / Fold change /veh TUBB4B (11761932_at) / RFU CAPN14 (11732068_a_at) / Fold change /veh CAPN14 (11732068_a_at) / RFU TMCC2 (11721928_a_at) / Fold change /veh TMCC2 (11721928_a_at) / RFU IRGQ (11745062_a_at) / Fold change /veh IRGQ (11745062_a_at) / RFU FAM174B (11720279_a_at) / Fold change /veh FAM174B (11720279_a_at) / RFU TMPRSS4 (11748680_a_at) / Fold change /veh TMPRSS4 (11748680_a_at) / RFU FAM212B (11763350_a_at) / Fold change /veh FAM212B (11763350_a_at) / RFU PLEKHG5 (11743358_a_at) / Fold change /veh PLEKHG5 (11743358_a_at) / RFU ZSCAN30 (11745921_a_at) / Fold change /veh ZSCAN30 (11745921_a_at) / RFU CMKLR1 (11741424_a_at) / Fold change /veh CMKLR1 (11741424_a_at) / RFU LOC101060620 /// MAPK8IP1 (11723275_at) / Fold change /veh LOC101060620 /// MAPK8IP1 (11723275_at) / RFU SPTSSB (11747773_x_at) / Fold change /veh SPTSSB (11747773_x_at) / RFU PRSS12 (11739890_at) / Fold change /veh PRSS12 (11739890_at) / RFU BIN1 (11741810_x_at) / Fold change /veh BIN1 (11741810_x_at) / RFU WNT11 (11732464_a_at) / Fold change /veh WNT11 (11732464_a_at) / RFU C10orf10 (11716521_a_at) / Fold change /veh C10orf10 (11716521_a_at) / RFU C5orf56 (11738089_at) / Fold change /veh C5orf56 (11738089_at) / RFU CYB561 (11721691_x_at) / Fold change /veh CYB561 (11721691_x_at) / RFU ANKRD19P (11752326_a_at) / Fold change /veh ANKRD19P (11752326_a_at) / RFU OR2T12 /// OR2T33 /// OR2T8 (11738714_s_at) / Fold change /veh OR2T12 /// OR2T33 /// OR2T8 (11738714_s_at) / RFU VCAN (11748164_a_at) / Fold change /veh VCAN (11748164_a_at) / RFU JSRP1 (11732532_at) / Fold change /veh JSRP1 (11732532_at) / RFU KRTAP10-11 (11738290_x_at) / Fold change /veh KRTAP10-11 (11738290_x_at) / RFU MYO3A (11730013_a_at) / Fold change /veh MYO3A (11730013_a_at) / RFU EBF3 (11725865_a_at) / Fold change /veh EBF3 (11725865_a_at) / RFU CAMK2N1 (11719241_x_at) / Fold change /veh CAMK2N1 (11719241_x_at) / RFU C5orf56 (11738088_a_at) / Fold change /veh C5orf56 (11738088_a_at) / RFU OLFML3 (11715873_a_at) / Fold change /veh OLFML3 (11715873_a_at) / RFU LOC100653217 /// NTM (11731650_a_at) / Fold change /veh LOC100653217 /// NTM (11731650_a_at) / RFU MAPK11 (11762145_a_at) / Fold change /veh MAPK11 (11762145_a_at) / RFU FIZ1 (11724087_x_at) / Fold change /veh FIZ1 (11724087_x_at) / RFU OASL (11726364_x_at) / Fold change /veh OASL (11726364_x_at) / RFU SOX15 (11748057_x_at) / Fold change /veh SOX15 (11748057_x_at) / RFU CD79A (11719716_a_at) / Fold change /veh CD79A (11719716_a_at) / RFU HIST1H1D (11736915_at) / Fold change /veh HIST1H1D (11736915_at) / RFU CASKIN2 (11723855_a_at) / Fold change /veh CASKIN2 (11723855_a_at) / RFU LOC730098 (11760151_x_at) / Fold change /veh LOC730098 (11760151_x_at) / RFU OR4N2 (11742367_at) / Fold change /veh OR4N2 (11742367_at) / RFU PRRT2 (11749266_a_at) / Fold change /veh PRRT2 (11749266_a_at) / RFU SNX32 (11753110_a_at) / Fold change /veh SNX32 (11753110_a_at) / RFU CDHR5 (11726645_a_at) / Fold change /veh CDHR5 (11726645_a_at) / RFU RCAN1 (11760418_a_at) / Fold change /veh RCAN1 (11760418_a_at) / RFU FAM167A (11723789_a_at) / Fold change /veh FAM167A (11723789_a_at) / RFU FAM26E (11764081_at) / Fold change /veh FAM26E (11764081_at) / RFU ISYNA1 (11749810_s_at) / Fold change /veh ISYNA1 (11749810_s_at) / RFU ACY1 (11761880_at) / Fold change /veh ACY1 (11761880_at) / RFU 11764098_at / Fold change /veh 11764098_at / RFU SAMD14 (11745864_x_at) / Fold change /veh SAMD14 (11745864_x_at) / RFU NPB (11741838_a_at) / Fold change /veh NPB (11741838_a_at) / RFU TMPRSS6 (11731388_a_at) / Fold change /veh TMPRSS6 (11731388_a_at) / RFU KRTAP10-2 (11738614_at) / Fold change /veh KRTAP10-2 (11738614_at) / RFU ARHGAP8 /// PRR5-ARHGAP8 (11727945_x_at) / Fold change /veh ARHGAP8 /// PRR5-ARHGAP8 (11727945_x_at) / RFU KRTAP5-7 /// NADSYN1 (11734609_at) / Fold change /veh KRTAP5-7 /// NADSYN1 (11734609_at) / RFU RASL12 (11751679_a_at) / Fold change /veh RASL12 (11751679_a_at) / RFU CDKN2B (11736163_a_at) / Fold change /veh CDKN2B (11736163_a_at) / RFU PRF1 (11729649_at) / Fold change /veh PRF1 (11729649_at) / RFU, ZNF638 /// ZNF638-IT1 / Fold change vs veh, ZNF638 /// ZNF638-IT1 / RFU, PANK3 / Fold change vs veh, PANK3 / RFU, SH3YL1 / Fold change vs veh, SH3YL1 / RFU, ZEB2 / Fold change vs veh, ZEB2 / RFU, NRIP1 / Fold change vs veh, NRIP1 / RFU, PTTG1IP / Fold change vs veh, PTTG1IP / RFU, CAPN2 / Fold change vs veh, CAPN2 / RFU, MED14 / Fold change vs veh, MED14 / RFU, SNORA58 / Fold change vs veh, SNORA58 / RFU, C1orf63 / Fold change vs veh, C1orf63 / RFU, LRRFIP1 / Fold change vs veh, LRRFIP1 / RFU, NDUFAF7 / Fold change vs veh, NDUFAF7 / RFU, SLC12A2 / Fold change vs veh, SLC12A2 / RFU, IBTK / Fold change vs veh, IBTK / RFU, ESF1 / Fold change vs veh, ESF1 / Fold change vs veh, TMEM50B / RFU, TAOK1 / Fold change vs veh, TAOK1 / RFU, ACBD3 / Fold change vs veh, ACBD3 / RFU, TMA16 / Fold change vs veh, TMA16 / RFU, RWDD3 / Fold change vs veh, RWDD3 / RFU, BCAT1 / Fold change vs veh, BCAT1 / RFU, EDEM3 / Fold change vs veh, EDEM3 / RFU, TMEM33 / Fold change vs veh, TMEM33 / RFU, WDR75 / Fold change vs veh, WDR75 / RFU, AHCTF1 / Fold change vs veh, AHCTF1 / RFU, TFRC / Fold change vs veh, TFRC / RFU, ZDHHC17 / Fold change vs veh, ZDHHC17 / RFU, NOM1 / Fold change vs veh, NOM1 / RFU, ARL8B / Fold change vs veh, ARL8B / RFU, ZBTB11 / Fold change vs veh, ZBTB11 / RFU, TAMM41 / Fold change vs veh, TAMM41 / RFU, KIAA1704 /// LOC100996395 / Fold change vs veh, KIAA1704 /// LOC100996395 / RFU, ING1 / Fold change vs veh, ING1 / RFU, TRMT61B / Fold change vs veh, TRMT61B / RFU, FUBP3 / Fold change vs veh, FUBP3 / RFU, TP53 / Fold change vs veh, TP53 / RFU, TNKS2 / Fold change vs veh, TNKS2 / RFU, ZFP14 / Fold change vs veh, ZFP14 / RFU, ACTR2 / Fold change vs veh, ACTR2 / RFU, PPP3R1 / Fold change vs veh, PPP3R1 / RFU, PIK3R1 / Fold change vs veh, PIK3R1 / RFU, HNRNPA1 / Fold change vs veh, HNRNPA1 / RFU, RNF170 / Fold change vs veh, RNF170 / RFU, ZNF28 / Fold change vs veh, ZNF28 / RFU, RNGTT / Fold change vs veh, RNGTT / RFU, OGT / Fold change vs veh, OGT / RFU, BRD1 / Fold change vs veh, BRD1 / RFU, MARS / Fold change vs veh, MARS / RFU, ZNF655 / Fold change vs veh, ZNF655 / RFU, FAHD1 / Fold change vs veh, FAHD1 / RFU, BDP1 / Fold change vs veh, BDP1 / RFU, LRRCC1 / Fold change vs veh, LRRCC1 / RFU, ARID1A / Fold change vs veh, ARID1A / RFU, ZNF146 / Fold change vs veh, ZNF146 / RFU, ZNF330 / Fold change vs veh, ZNF330 / RFU, GPN3 / Fold change vs veh, GPN3 / RFU, C9orf123 / Fold change vs veh, C9orf123 / RFU, N4BP2L2 / Fold change vs veh, N4BP2L2 / RFU, ARFIP1 / Fold change vs veh, ARFIP1 / RFU, FAM179B / Fold change vs veh, FAM179B / RFU, BCL10 / Fold change vs veh, BCL10 / RFU, UHRF1BP1L / Fold change vs veh, UHRF1BP1L / RFU, BET1 / Fold change vs veh, BET1 / RFU, CNOT2 / Fold change vs veh, CNOT2 / RFU, ZNF268 / Fold change vs veh, ZNF268 / Fold change vs veh, ZNF507 / RFU, DGCR2 / Fold change vs veh, DGCR2 / RFU, WDSUB1 / Fold change vs veh, WDSUB1 / Fold change vs veh, HSP90B1 /// MIR3652 / RFU, ADSS / Fold change vs veh, ADSS / RFU, GK / Fold change vs veh, GK / RFU, ZNF148 / Fold change vs veh, ZNF148 / RFU, TAF9 / Fold change vs veh, TAF9 / RFU, SLC1A5 / Fold change vs veh, SLC1A5 / RFU, SLMO2 / Fold change vs veh, SLMO2 / RFU, ABCC4 / Fold change vs veh, ABCC4 / RFU, LOC101060439 /// RAP1B / Fold change vs veh, LOC101060439 /// RAP1B / RFU, RFX7 / Fold change vs veh, RFX7 / RFU, GTPBP10 / Fold change vs veh, GTPBP10 / RFU, CNEP1R1 / Fold change vs veh, CNEP1R1 / RFU, BIVM-ERCC5 /// ERCC5 / Fold change vs veh, BIVM-ERCC5 /// ERCC5 / RFU, ILF3 / Fold change vs veh, ILF3 / RFU 11762660_at / Fold change /veh 11762660_at / RFU VCAN (11757783_s_at) / Fold change /veh VCAN (11757783_s_at) / RFU DDX43 (11728927_at) / Fold change /veh DDX43 (11728927_at) / RFU KRT8 (11758188_x_at) / Fold change /veh KRT8 (11758188_x_at) / RFU NKD1 (11759106_at) / Fold change /veh NKD1 (11759106_at) / RFU SRD5A1 (11742802_a_at) / Fold change /veh SRD5A1 (11742802_a_at) / RFU TPSAB1 /// TPSB2 (11721975_s_at) / Fold change /veh TPSAB1 /// TPSB2 (11721975_s_at) / RFU GSTM3 (11746129_a_at) / Fold change /veh GSTM3 (11746129_a_at) / RFU IL23R (11737362_x_at) / Fold change /veh IL23R (11737362_x_at) / RFU TMEM51 (11727254_a_at) / Fold change /veh TMEM51 (11727254_a_at) / RFU PIWIL2 (11732686_x_at) / Fold change /veh PIWIL2 (11732686_x_at) / RFU ORM1 (11744905_x_at) / Fold change /veh ORM1 (11744905_x_at) / RFU CCDC152 (11743942_at) / Fold change /veh CCDC152 (11743942_at) / RFU ECM1 (11717891_a_at) / Fold change /veh ECM1 (11717891_a_at) / RFU IL23R (11748794_a_at) / Fold change /veh IL23R (11748794_a_at) / RFU TNFAIP8L3 (11732012_x_at) / Fold change /veh TNFAIP8L3 (11732012_x_at) / RFU MBOAT4 (11741988_at) / Fold change /veh MBOAT4 (11741988_at) / RFU 11764193_at / Fold change /veh 11764193_at / RFU TMEM53 (11763286_at) / Fold change /veh TMEM53 (11763286_at) / RFU MAGEB2 (11727129_at) / Fold change /veh MAGEB2 (11727129_at) / RFU TMEM200A (11744735_a_at) / Fold change /veh TMEM200A (11744735_a_at) / RFU CCDC152 (11751479_a_at) / Fold change /veh CCDC152 (11751479_a_at) / RFU FAM211A (11726209_a_at) / Fold change /veh FAM211A (11726209_a_at) / RFU RGS16 (11746705_a_at) / Fold change /veh RGS16 (11746705_a_at) / RFU VCAN (11755009_s_at) / Fold change /veh VCAN (11755009_s_at) / RFU RHOB (11743442_s_at) / Fold change /veh RHOB (11743442_s_at) / RFU RGS16 (11720943_a_at) / Fold change /veh RGS16 (11720943_a_at) / RFU RGS16 (11720944_at) / Fold change /veh RGS16 (11720944_at) / RFU, VPS4B / Fold change vs veh, VPS4B / RFU, CREB1 / Fold change vs veh, CREB1 / RFU, DNAJC13 / Fold change vs veh, DNAJC13 / RFU, GNAQ / Fold change vs veh, GNAQ / RFU, CDK5R1 / Fold change vs veh, CDK5R1 / RFU, ZRANB3 / Fold change vs veh, ZRANB3 / RFU, CUL4A / Fold change vs veh, CUL4A / RFU, CCNY / Fold change vs veh, CCNY / RFU, UFL1 / Fold change vs veh, UFL1 / RFU, COG3 / Fold change vs veh, COG3 / RFU, DIAPH2 / Fold change vs veh, DIAPH2 / RFU, SKA2 / Fold change vs veh, SKA2 / RFU, AFF3 / Fold change vs veh, AFF3 / RFU, LMF1 / Fold change vs veh, LMF1 / RFU, IPO11 / Fold change vs veh, IPO11 / RFU, DFFB / Fold change vs veh, DFFB / RFU, FOXP1 / Fold change vs veh, FOXP1 / RFU, CARD8 / Fold change vs veh, CARD8 / RFU, STRN3 / Fold change vs veh, STRN3 / RFU, ADK / Fold change vs veh, ADK / RFU, RASSF2 / Fold change vs veh, RASSF2 / RFU, WIPF1 / Fold change vs veh, WIPF1 / RFU, LARP1B / Fold change vs veh, LARP1B / RFU, RASA1 / Fold change vs veh, RASA1 / RFU, RB1 / Fold change vs veh, RB1 / RFU, PPFIA1 / Fold change vs veh, PPFIA1 / RFU, MAT2A / Fold change vs veh, MAT2A / RFU, CCT5 / Fold change vs veh, CCT5 / RFU, WDR92 / Fold change vs veh, WDR92 / RFU, CUX1 / Fold change vs veh, CUX1 / RFU, TTC7A / Fold change vs veh, TTC7A / RFU, TMEM135 / Fold change vs veh, TMEM135 / RFU, DEPTOR / Fold change vs veh, DEPTOR / RFU, CPM / Fold change vs veh, CPM / RFU, DNAJB6 / Fold change vs veh, DNAJB6 / RFU, CACNA2D3 / Fold change vs veh, CACNA2D3 / RFU, DTX4 / Fold change vs veh, DTX4 / RFU, TFCP2 / Fold change vs veh, TFCP2 / RFU, GMCL1 /// GMCL1P1 / Fold change vs veh, GMCL1 /// GMCL1P1 / RFU, AEBP2 / Fold change vs veh, AEBP2 / RFU, SNHG1 /// SNORD22 /// SNORD25 /// SNORD26 /// SNORD27 /// SNORD28 /// SNORD29 /// SNORD31 / Fold change vs veh, SNHG1 /// SNORD22 /// SNORD25 /// SNORD26 /// SNORD27 /// SNORD28 /// SNORD29 /// SNORD31 / Fold change (Aza/veh), C12orf56 (ProbeSet 11735607_a_at) / Fold change (ACY-1035/veh), C12orf56 (ProbeSet 11735607_a_at) / Fold change (Aza/veh), FGFR1OP (ProbeSet 11751329_s_at) / Fold change (ACY-1035/veh), FGFR1OP (ProbeSet 11751329_s_at) / Fold change (Aza/veh), VPS36 (ProbeSet 11739960_a_at) / Fold change (ACY-1035/veh), VPS36 (ProbeSet 11739960_a_at) / RFU SYPL1 (11715823_x_at) / Fold change /veh SYPL1 (11715823_x_at) / RFU IGFBP7 (11715501_s_at) / Fold change /veh IGFBP7 (11715501_s_at) / RFU REEP3 (11722064_at) / Fold change /veh REEP3 (11722064_at) / RFU IGLL1 (11728026_x_at) / Fold change /veh IGLL1 (11728026_x_at): dose or concentration left out as unconfirmed
# Conditions: ProbeSet 11753234_a_at; LIST B
structure (smiles),measurement,value
Nc1ccc(-c2cccs2)cc1NC(=O)c1ccc2c(c1)cc(C1CC1)n2CCN1CCOCC1 [ACY-1035],"Fold change vs veh, TAMM41",0.90
